Results on twelve compounds are retold here after US5808040A, “L-nucleosides incorporated into polymeric structure for stabilization of oligonucleotides” (priority 1997, dated 1998).

A value given as a limit tells only on which side of the number the result lay.

One data set concerns EBV. The experiment in a line: Inhibitory effect on EBV in H1 cells, bioassay by EBV DP activity in superinfected Raji cells. The format is cell-based, Epstein-Barr virus. The note with it: EBV ID90 vs H1 cell CD50. As to the method:
(§1) H1 cells were maintained in […] growth for two days prior to the initiation of treatment. The cells were centrifuged at 600 g for 10 min. at room temperature to separate them from the medium containing pre-existing virus particles. The H1 cells were seeded in 24 well plates at a density of 1×10^5 cells per well in 2 ml of fresh medium with or without drug and incubated at 37° C. for 5 days. The medium containing virion was saved and used for evaluating the inhibitory effect of drugs on virus production and infectivity by use of a bioassay. The virion were pelleted from the cell free medium by centrifugation at 45,000 rpm for 90 min. in a SW-50 Ti rotor (Beckman). The virion were resuspended in 1 ml growth medium and then used to infect 1×10^6 Raji cells for 48 hours. Since the level of EBV DP activity in Raji cells post superinfection is proportional to the number of virions added, the EBV specific DP activity induced was able to be measured. The inhibitory drug effect was calculated by comparing the EBV DP activity to multiple dilution controls.
and compared with controls. Hl cells were treated for 5 days and the
ID90 was determined by bioassay.

In another data set the test system is H1 cells. The experiment in a line: Cytotoxicity in H1 cells (72 hours, cell count). The note with it: summary statement, cells not specified. It is filed as cell-based. As to the method:
Inhibitory effect of compounds on EBV: The CD50 was performed by
exposing Hl cells to different concentrations of the compounds in normal
growth medium at 37° C. for 72 hours; the cells were then counted
and compared with controls. Hl cells were treated for 5 days and the […]

Data set [1] in a line: Clinical chemistry of mouse plasma after L-(-)-FMAU treatment. The note with it: 10 or 50 mg/kg bid for thirty days. It is filed as in vivo. As to the method: FIGS. 14-20 provide the clinical chemistry of mouse plasma after administration of L-(-)-FMAU at 10 mg/kg (three mice) or 50 mg/kg (three mice) bid for thirty days.
A short description of data set [2]: Clearance of L-(-)-FMAU from plasma and liver of mice after oral administration. The format is in vivo, mouse. As to the method: The clearance of L-(-)-FMAU from the plasma and liver of mice after oral administration was evaluated. Mice were […] with L-(-)-FMAU which was tritium labeled (radiospecificity of […]).
FIG. 11 is a graph of the plasma concentration of L-(-)-FMAU in mice after oral administration 10 over time, and FIG. 12 is a graph of the concentration of L-(-)-FMAU in mouse liver after oral administration over time (cross, 10 mg/kg administered bid (bi-daily) for 30 days prior to pharmacokinetic study and then study carried out on day thirty one on administration of same concentration; dark circle, 50 mg/kg administered bid for 30 days prior to study and then study carried out on day thirty one on administration of same concentration; open circle, 50 mg/kg administered for the first time on the first day of the study).
At the times indicated (see FIGS. 10 and 11) the mice were bled from their retro-orbital sinus using heparinized capillaries. The plasma was extracted with trichloroacetic acid and neutralized with freon/trioctylamine. Supernatants were directly counted and the concentration calculated.

Data set [3] in a line: Toxicity in BDF1 female mice, change in body weight over thirty days. It is filed as in vivo, mouse. As to the method: FIG. 13a illustrates the change in body weight over thirty days of control BDF1 female mice. FIGS. 13b and 13c illustrate the change in body weight over thirty days of BDF1 female mice dosed with 10 mg/kg (13b) and 50 mg/kg (13c) bid of L-(-)-FMAU. The body weight presented represents the mean and standard deviation of that of five to seven mice.

The test system of the next data set is mitochondrial DNA. As to the kind of experiment: Mitochondrial DNA content in H1 cells (slot blot assay). It is filed as cell-based, human. As to conditions: 1 mM, 6 days. As to the method: as §1
Slot Blot Assay--The amount of mitochondrial DNA was measured by the slot blot method (2). […] The amount of mitochondrial DNA in the treated and non-treated H1 cells was quantified by densitometer (LKB Ultroscan XL).

Setting [4] is: with the exception of mouse 50-2.

As for `O=c1[nH]c(=O)n([C@H]2O[C@@H](CO)[C@H](O)[C@H]2F)cc1I` [L-FIAU, 2'-fluoro-5-iodo-β-L-arabinofuranosyluridine], in the data set on EBV, the “Therapeutic Index (CD50 /ID90)” value turned out to be 12.

As to `Nc1nc(=O)n([C@H]2O[C@@H](CO)[C@H](O)[C@H]2F)cc1I` [L-FIAC, 2'-fluoro-5-iodo-β-L-arabinofuranosylcytosine], the “Therapeutic Index (CD50 /ID90)” value with EBV is recorded as > 40.

For `O=c1[nH]c(=O)n([C@@H]2O[C@H](CO)[C@@H](O)[C@@H]2F)cc1I` [D-FIAU], the “Therapeutic Index (CD50 /ID90)” value in the data set on EBV worked out at 40.

For the compound `O=C(O)P(=O)(O)O` [PFA], the “Therapeutic Index (CD50 /ID90)” value with EBV amounted to 16.

As to `CCc1cn([C@@H]2O[C@H](CO)[C@@H](O)[C@@H]2F)c(=O)[nH]c1=O` [D-FEAU], the “Therapeutic Index (CD50 /ID90)” value with EBV worked out at 2000.

Regarding `Nc1nc(=O)n([C@@H]2O[C@H](CO)[C@@H](O)[C@@H]2F)cc1I` [D-FIAC], the “Therapeutic Index (CD50 /ID90)” value with EBV stood at 25.

`Nc1nc2c(ncn2CCC(CO)CO)c(=O)[nH]1` [PCV]: the “Therapeutic Index (CD50 /ID90)” value with EBV is 25.

On to `Cc1cn([C@H]2O[C@@H](CO)[C@H](O)[C@H]2F)c(=O)[nH]c1=O` [L-FMAU, 2'-fluoro-5-methyl-β-L-arabinofuranosyluridine], for which, in the data set on H1 cells, the “cytotoxicity (in words)” value is recorded as “low cytotoxicity”. In addition, in data set [1], the “lactic acid in mouse plasma” value was “not significantly different from those of the control mice”, the “lactic dehydrogenase in mouse plasma” value is given as “not significantly different from those of the control mice” and the “total bilirubin in mouse plasma” value is “fall within the normal human range (less than 1.2 mg/dL)”. For the same compound, in data set [1] (normal human level 30-114 U/L), the “alkaline phosphatase in mouse plasma” value is listed as “somewhat higher than the normal human level”. In data set [1] (setting [4]), the “ALT (SGPT) in mouse plasma” value is reported as “not different from those of the control mice” and the “creatinine in mouse plasma” value was “not different from those of the control mice”. The “AST (SGOT) in mouse plasma” value in data set [1] (with the exception of mouse 50-2 and mouse 10-2) is listed as “not different from those of the control mice”. The “time of peak concentration in liver” value in data set [2] (10 or 50 mg/kg, liver) was “approximately one”. For the same compound, the clearance from liver entry in data set [2] (liver) was “substantially cleared from both plasma and liver after four hours”. Also, the clearance from plasma result in data set [2] (plasma) was “substantially cleared from both plasma and liver after four hours”. Besides, the tolerability entry in data set [3] (BDF1 female mice, 10 and 50 mg/kg bid, thirty days) was “well tolerated”. Also, the “change in body weight” value in data set [3] (mouse, in vivo) is “did not appear to significantly affect the weight of the mice over thirty days”. Moreover, in the data set on mitochondrial DNA, the “inhibition of mitochondrial DNA content in H1 cells” value is “No inhibition”. Further, the “Therapeutic Index (CD50 /ID90)” value in the data set on EBV worked out at 200.

As for `CCc1cn([C@H]2O[C@@H](CO)[C@H](O)[C@H]2F)c(=O)[nH]c1=O` [L-FEAU, 2'-fluoro-5-ethyl-β-L-arabinofuranosyluridine], in the data set on EBV, the “Therapeutic Index (CD50 /ID90)” value is 15.

`Cc1cn([C@@H]2O[C@H](CO)[C@@H](O)[C@@H]2F)c(=O)[nH]c1=O` [D-FMAU]: the “Therapeutic Index (CD50 /ID90)” value in the data set on EBV was found to be 50.

In the case of `Nc1nc2c(ncn2COC(CO)CO)c(=O)[nH]1` [DHPG], in the data set with EBV, the “Therapeutic Index (CD50 /ID90)” value was found to be 15.

Consider `Nc1nc2c(ncn2COCCO)c(=O)[nH]1` [ACV], for which the “Therapeutic Index (CD50 /ID90)” value in the data set with EBV came out at 20.
